Values joined by “and” are separate entries in the source; they are usually repeats but may differ in a detail not shown here. Equal values may be shown once.
Key:
[1] = Whole blood concentrations in mice after IP dosing (LC-MS/MS); format: in vivo
Method: These determinations were made using protein precipitation, liquid chromatography (LC), and mass spectrometry (MS/MS). Ten μl aliquots of whole blood and matrix calibration standards were distributed in a 96-well plate; 10 μl aliquots of blank matrix for matrix blanks and control blanks were included as controls. Ten μl of water was added to each sample followed by vortexing. One hundred sixty […] of internal standard was added to each sample except the matrix blanks; 160 μl 70:30 water:acetonitrile (ACN) was added to matrix blanks. This was followed by a […]. One hundred fifty μl of the resultant supernatant was then transferred to a new 96-well plate and the samples blown to dryness at 35° C. The resultant product was then reconstituted with 90 μl ACN.

[2] = mouse, in vivo, ip, 10 mg/kg
Source text: (§1) Tumor growth was monitored daily. […] Significance was set at p≤0.05.

[3] = Day 30, 10 mg/kg IP QD
Source text: as §1

[4] = 2 mg/kg IP QD x 3 days, Day 1, 2.00 hrs
[5] = 2 mg/kg IP QD x 3 days, Day 1, 6.00 hrs
[6] = 2 mg/kg IP QD x 3 days, Day 1, 24.0 hrs
[7] = 2 mg/kg IP QD x 3 days, Day 2, 1.00 hrs
[8] = 2 mg/kg IP QD x 3 days, Day 2, 2.00 hrs
[9] = 2 mg/kg IP QD x 3 days, Day 2, 6.00 hrs
[10] = 2 mg/kg IP QD x 3 days, Day 2, 24.0 hrs
[11] = 2 mg/kg IP QD x 3 days, Day 3, 1.00 hrs
[12] = 2 mg/kg IP QD x 3 days, Day 3, 2.00 hrs
[13] = 2 mg/kg IP QD x 3 days, Day 3, 6.00 hrs
[14] = 2 mg/kg IP QD x 3 days, Day 3, 24.0 hrs
[15] = 10 mg/kg IP QD x 3 days, Day 1, 1.00 hrs
[16] = 10 mg/kg IP QD x 3 days, Day 1, 2.00 hrs
[17] = 10 mg/kg IP QD x 3 days, Day 1, 6.00 hrs
[18] = 10 mg/kg IP QD x 3 days, Day 1, 24.0 hrs
[19] = 10 mg/kg IP QD x 3 days, Day 2, 2.00 hrs
[20] = 10 mg/kg IP QD x 3 days, Day 2, 24.0 hrs

With `CO[C@H]1C[C@@H]2CC[C@@H](C)[C@@](O)(O2)C(=O)C(=O)N2CCCC[C@H]2C(=O)O[C@H]([C@H](C)C[C@@H]2C[C@@H]3C[C@H]2C[C@H]3O)CC(=O)[C@H](C)/C=C(\C)[C@@H](O)[C@@H](OC)C(=O)[C@H](C)C[C@H](C)/C=C/C=C/C=C/1C` [Formula I, 37R-hydroxynorbornylrapamycin] the “Concentration in Mouse Whole Blood, Mean” value [1, 4] was 431 ng/mL, the “Concentration in Mouse Whole Blood, individual animals 1-3” value (shortened to “Concentration … individual animals 1-3”) [1, 4] was 668 ng/mL and 392 ng/mL and 233 ng/mL and the “Concentration in Mouse Whole Blood, Mean” value [1, 5] was 486 ng/mL. The “Concentration … individual animals 1-3” value [1, 5] was 468 ng/mL and 646 ng/mL and 344 ng/mL, the “Concentration in Mouse Whole Blood, Mean” value [1, 6] was 36.6 ng/mL and the “Concentration … individual animals 1-3” value [1, 6] was 35.8 ng/mL and 48.0 ng/mL and 26.0 ng/mL. For the same compound, the “Concentration in Mouse Whole Blood, Mean” value [1, 7] was 569 ng/mL, the “Concentration … individual animals 1-3” value [1, 7] was 682 ng/mL and 670 ng/mL and 354 ng/mL and the “Concentration in Mouse Whole Blood, Mean” value [1, 8] was 814 ng/mL. For the same compound, the “Concentration … individual animals 1-3” value [1, 8] was 746 ng/mL and 841 ng/mL and 854 ng/mL, the “Concentration in Mouse Whole Blood, Mean” value [1, 9] was 552 ng/mL and the “Concentration … individual animals 1-3” value [1, 9] was 537 ng/mL and 803 ng/mL and 315 ng/mL. For the same compound, the “Concentration in Mouse Whole Blood, Mean” value [1, 10] was 47.8 ng/mL, the “Concentration … individual animals 1-3” value [1, 10] was 26.8 ng/mL and 76.5 ng/mL and 40.1 ng/mL and the “Concentration in Mouse Whole Blood, Mean” value [1, 11] was 946 ng/mL. For the same compound, the “Concentration … individual animals 1-3” value [1, 11] was 968 ng/mL and 885 ng/mL and 986 ng/mL, the “Concentration in Mouse Whole Blood, Mean” value [1, 12] was 583 ng/mL and the “Concentration … individual animals 1-3” value [1, 12] was 760 ng/mL and 707 ng/mL and 282 ng/mL. The “Concentration in Mouse Whole Blood, Mean” value [1, 13] was 630 ng/mL, the “Concentration … individual animals 1-3” value [1, 13] was 560 ng/mL and 860 ng/mL and 469 ng/mL and the “Concentration in Mouse Whole Blood, Mean” value [1, 14] was 62.5 ng/mL. The “Concentration … individual animals 1-3” value [1, 14] was 45.7 ng/mL and 92.2 ng/mL and 49.7 ng/mL, the “Concentrations in whole blood over time (in words)” value ([1]; 2 mg/kg or 10 mg/kg IP QD for three days) was “sufficient concentrations in whole blood over time” and the “Concentration in Mouse Whole Blood, Mean” value [1, 15] was 778 ng/mL. For the same compound, the “Concentration in Mouse Whole Blood, individual animals 4-6” value (“Concentration … individual animals 4-6” below) [1, 15] was 744 ng/mL and 736 ng/mL and 853 ng/mL, the “Concentration in Mouse Whole Blood, Mean” value [1, 16] was 2340 ng/mL and the “Concentration … individual animals 4-6” value [1, 16] was 2390 ng/mL and 2040 ng/mL and 2590 ng/mL. The “Concentration in Mouse Whole Blood, Mean” value [1, 17] was 1726 ng/mL, the “Concentration … individual animals 4-6” value [1, 17] was 1970 ng/mL and 2300 ng/mL and 908 ng/mL and the “Concentration in Mouse Whole Blood, Mean” value [1, 18] was 273 ng/mL. The “Concentration … individual animals 4-6” value [1, 18] was 357 ng/mL and 320 ng/mL and 141 ng/mL, the “Concentration … individual animals 4-6” value ([1]; 10 mg/kg IP QD x 3 days, Day 2, 1.00 hrs) was “AQL (Original value above quantitation limit (1000 ng/mL)) and 3130 ng/mL and 739 ng/mL” and the “Concentration in Mouse Whole Blood, Mean” value ([1]; 10 mg/kg IP QD x 3 days, Day 2, 1.00 hrs, one animal AQL) was 1935 ng/mL. The “Concentration in Mouse Whole Blood, Mean” value [1, 19] was 2820 ng/mL, the “Concentration … individual animals 4-6” value [1, 19] was 3060 ng/mL and 2660 ng/mL and 2740 ng/mL and the “Concentration … individual animals 4-6” value ([1]; 10 mg/kg IP QD x 3 days, Day 2, 6.00 hrs) was “AQL (Original value above quantitation limit (1000 ng/mL)) (2×) and 811 ng/mL”. For the same compound, the “Concentration in Mouse Whole Blood, Mean” value ([1]; 10 mg/kg IP QD x 3 days, Day 2, 6.00 hrs, two animals AQL) was 811 ng/mL, the “Concentration in Mouse Whole Blood, Mean” value [1, 20] was 335 ng/mL and the “Concentration … individual animals 4-6” value [1, 20] was 335 ng/mL and 472 ng/mL and 199 ng/mL. For the same compound, the “Concentration … individual animals 4-6” value ([1]; 10 mg/kg IP QD x 3 days, Day 3, 1.00 hrs) was 3490 ng/mL and 3220 ng/mL, the “Concentration … individual animals 4-6” value ([1]; 10 mg/kg IP QD x 3 days, Day 3, 2.00 hrs) was 2530 ng/mL and 2680 ng/mL and 482 ng/mL and the “Concentration … individual animals 4-6” value ([1]; 10 mg/kg IP QD x 3 days, Day 3, 6.00 hrs) was 966 ng/mL and 2410 ng/mL and 773 ng/mL. For the same compound, the “Concentration … individual animals 4-6” value ([1]; 10 mg/kg IP QD x 3 days, Day 3, 24.0 hrs) was 548 ng/mL and 276 ng/mL, the “Body Wt. % Δ from Baseline, Mean” value [2] was 14.24% and the “Body Wt. % Δ from Baseline, Median” value [2] was 14.91%. For the same compound, the “Percent Survival” value [3] was 100%.
